{
  "source": "patent US11542249B2",
  "about": "“BTK inhibitor compounds” (Eli Lilly and Company, priority 2017, dated 2023)",
  "key": {"human BTK": {"biological_target": "human BTK (Homo sapiens (Human), UniProt Q06187)", "sequence (Q06187 whole entry)": "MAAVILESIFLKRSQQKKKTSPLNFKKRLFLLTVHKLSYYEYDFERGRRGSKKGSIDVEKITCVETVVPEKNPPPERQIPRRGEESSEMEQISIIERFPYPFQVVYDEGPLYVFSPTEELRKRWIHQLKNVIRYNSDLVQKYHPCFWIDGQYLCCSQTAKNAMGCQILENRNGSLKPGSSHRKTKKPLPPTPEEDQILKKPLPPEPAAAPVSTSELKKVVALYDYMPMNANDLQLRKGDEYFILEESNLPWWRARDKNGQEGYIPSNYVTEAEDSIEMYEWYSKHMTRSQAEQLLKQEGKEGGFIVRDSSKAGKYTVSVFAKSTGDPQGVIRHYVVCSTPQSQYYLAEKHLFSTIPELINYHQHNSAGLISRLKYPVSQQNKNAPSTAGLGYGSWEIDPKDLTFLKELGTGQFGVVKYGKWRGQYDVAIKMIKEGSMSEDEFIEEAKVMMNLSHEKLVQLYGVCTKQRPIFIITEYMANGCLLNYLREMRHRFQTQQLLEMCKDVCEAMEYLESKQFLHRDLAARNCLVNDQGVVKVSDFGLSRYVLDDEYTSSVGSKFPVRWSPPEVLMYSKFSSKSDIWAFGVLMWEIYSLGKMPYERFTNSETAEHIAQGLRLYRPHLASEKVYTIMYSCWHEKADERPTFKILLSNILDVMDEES", "assay": "BTK LANTHASCREEN Eu Kinase Binding Assay", "conditions": "IC50 value ± standard deviation; full-length His-labeled BTK, kinase tracer 236; read-out: hBTK Rel IC50"}, "Rat Oral Bioavailability": {"assay": "Rat Oral Bioavailability", "type": "in vivo, Sprague-Dawley rats", "conditions": "Sprague-Dawley, plasma, PO 3 mg/kg vs IV 1 mg/kg, read-out: Rat Oral Bioavailability (% F)", "procedure": "The test compound is administered to Sprague-Dawley rats intravenously (IV) at 1 mg/kg (using vehicles of either: 20% CAPTISOL® in 25 mM sodium phosphate buffer, pH2 quantum satis; or 25% DMA, 15% EtOH, 10% propylene glycol, 25% 2-pyrrolidone, and 25% purified water) and orally (PO) at 3 mg/kg (using a vehicle of 1% hydroxyethyl cellulose, 0.25% polysorbate 80, 0.05% Antifoam 1510-US, and purified water quantum satis). Serial blood samples are collected at 0.08, 0.25, 0.5, 1, 2, 4, 8, and 12 h post dose for IV bolus and at 0.25, 0.5, 1, 2, 4, 8, and 12 h post dose after oral administration. After treatment with an EDTA […], plasma is obtained by centrifugation and stored at −70° C. until analysis by LC-MS/MS. Test article concentration is determined in plasma and uploaded into the Watson LIMS™ system where noncompartmental analysis is used to calculate Area Under the Curve (AUC) for both IV and PO arms. Bioavailability (% F) is calculated via the following equation, %F=(AUCPO×DoseIV)/(AUCIV×DosePO)×100. Table 3 indicates the rat oral bioavailability of select BTK inhibitors."}, "normal rats": {"test_system": "normal rats", "assay": "In vivo administration to normal rats for four days (tolerability/toxicity)", "from_the_text": "Compounds of the invention, for instance Example 1, show an advantageous combination of pharmacological properties, such as potency, high oral in vivo availabilty, in vivo efficacy, and a favorable toxicity profile in preclinical testing."}, "[1]": {"test_system": "activated B cells in human whole blood (CD69)", "assay": "Human Whole Blood CD69 in vitro assay (B cell activation, flow cytometry)", "type": "cell-based", "conditions": "IC50 value ± standard deviation, anti-human-IgD-Dextran stimulation, read-out: HWB CD69 Rel IC50"}, "human EGFR": {"biological_target": "human EGFR (Homo sapiens (Human), UniProt P00533)", "sequence (P00533 668-1210)": "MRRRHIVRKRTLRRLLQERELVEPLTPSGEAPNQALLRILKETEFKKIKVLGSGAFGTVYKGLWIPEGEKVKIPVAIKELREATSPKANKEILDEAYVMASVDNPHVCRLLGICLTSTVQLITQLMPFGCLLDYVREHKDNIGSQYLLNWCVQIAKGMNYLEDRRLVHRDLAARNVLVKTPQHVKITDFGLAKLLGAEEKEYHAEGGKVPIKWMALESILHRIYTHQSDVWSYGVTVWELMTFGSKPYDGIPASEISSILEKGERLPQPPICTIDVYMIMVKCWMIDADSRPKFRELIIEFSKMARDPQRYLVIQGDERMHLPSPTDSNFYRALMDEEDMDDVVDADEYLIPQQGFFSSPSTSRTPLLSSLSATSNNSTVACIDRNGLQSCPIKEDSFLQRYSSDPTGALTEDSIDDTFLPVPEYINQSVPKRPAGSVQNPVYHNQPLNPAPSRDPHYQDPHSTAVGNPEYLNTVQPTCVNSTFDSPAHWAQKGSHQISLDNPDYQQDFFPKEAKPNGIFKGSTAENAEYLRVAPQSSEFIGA", "assay": "EGFR LANTHASCREEN Eu Kinase Binding Assay", "conditions": "IC50 value ± standard deviation; truncated GST-labeled EGFR, kinase tracer 199; read-out: hEGFR Rel IC50"}, "[2]": {"test_system": "type II collagen-induced arthritis (CIA) rat model", "assay": "Rat In Vivo Collagen-Induced Arthritis Assay", "parameters": "species or system Female Lewis rats", "conditions": "for % inhibition paw thickness AUC vs Vehicle control / % paw thickness AUC (mm) ± SE: CIA rats, 9 days", "procedure": "A type II collagen-induced arthritis (CIA) rat model may be used to evaluate the therapeutic effects of compounds. Female Lewis rats (Charles River Charles River Laboratories, Inc.) with a mean body weight of 155-175 g are used for the study. Animals are fed with standard rodent chow and provided water ad libitum. Immunization emulsion is prepared with 2 mg/ml bovine collagen-II mixed with an equal volume of incomplete Freund's adjuvant (IFA). Rats are immunized intradermally with 0.4 ml collagen emulsion in two sites each on the lower lumbar region, above the base of the tail on day 1, and again on day 8. Animals are randomized based on the paw thickness and body weight on day 11 into study groups, with 8 rats in each group. Compounds are prepared in 1% HEC/0.25% P80/0.05% anti-foam in purified water and dosed daily via oral gavage for 9 days. Paw thickness is quantitated daily using a caliper measurement in the right ankle site.\nThe inhibition by the compounds of the invention is evaluated using Dunnett's post test for multiple comparisons for the CIA rat groups treated with the indicated Example compound, at the indicated dose, as compared to CIA rat groups treated with vehicle, and differences of P<0.05 are considered to be significant. […] Mean sum paw thickness is decreased compared to vehicle treated CIA rats. Mean percent paw thickness inhibition during the treatment period illustrates dose-related improvement.\nTable 4 indicates the in vivo activity for exemplified BTK inhibitors in the collagen-induced arthritis model (SE=standard error)."}},
  "data": [
    {"smiles": "C=CC(=O)N1CCC(Nc2cncc(-c3cnc(Oc4cccc(Cl)c4)nc3)c2)CC1", "note": "[Example 1, 1-[4-[[5-[2-(3-chlorophenoxy)pyrimidin-5-yl]-3-pyridyl]amino]-1-piperidyl]prop-2-en-1-one]", "values": [
      {"measurement": "IC50", "setting": "human BTK", "value": "25.3 ± 5.42", "unit": "nM"},
      {"measurement": "bioavailability", "setting": "Rat Oral Bioavailability", "value": 74, "unit": "%"},
      {"measurement": "tolerability when administered in vivo", "setting": "normal rats", "value": "generally well tolerated"},
      {"measurement": "toxicity in vivo", "setting": "normal rats", "value": "advantageous lack of toxicity"},
      {"measurement": "IC50", "setting": "[1]", "value": "393 ± 128", "unit": "nM"},
      {"measurement": "IC50", "setting": "human EGFR", "value": "470 ± 93.6", "unit": "nM"},
      {"measurement": "% inhibition paw thickness AUC vs Vehicle control", "setting": "[2]; 0.5 mg/kg/d oral", "value": 23, "unit": "%"},
      {"measurement": "% paw thickness AUC (mm) ± SE", "setting": "[2]; 0.5 mg/kg/d oral", "value": "73.9 ± 2.5", "unit": "mm"},
      {"measurement": "% inhibition paw thickness AUC vs Vehicle control", "setting": "[2]; 1 mg/kg/d oral", "value": 47, "unit": "%"},
      {"measurement": "% paw thickness AUC (mm) ± SE", "setting": "[2]; 1 mg/kg/d oral", "value": "69.6 ± 2.0", "unit": "mm"},
      {"measurement": "% inhibition paw thickness AUC vs Vehicle control", "setting": "[2]; 3 mg/kg/d oral", "value": 81, "unit": "%"},
      {"measurement": "% paw thickness AUC (mm) ± SE", "setting": "[2]; 3 mg/kg/d oral", "value": "63.4 ± 1.3", "unit": "mm"},
      {"measurement": "arthritis severity in CIA rats", "setting": "[2]; compared to vehicle treated CIA rats", "value": "dose-related reduction"}
    ]}
  ]
}
